Read-outs that look alike come from different tables or passages of the source.
Assays:
[1] = system: HIV-1 isolates from clades A to D, AE, and AG; assay: TZM-bl cell-based neutralization assay, means over the panel (n=12); settings: Table 6, all viruses, >167 nM assigned 200, >250 assigned 300
[2] = system: HIV-1 GS-015.EC12; assay: TZM-bl cell-based neutralization assay; settings: Table 6; GS-015.EC12, clade C, R5
[3] = Dynamic light scattering (aggregation); type: physicochemical
Protocol: To test whether soluble aggregates of 4Dm2m and 6Dm2m formed during prolonged incubation, dynamic light scattering (DLS) was used. Proteins concentrated to 10 mg/ml in PBS were stored at […] and slowly thawed on ice before measurements.

[4] = system: HIV-1 Bal; assay: Pseudotyped HIV-1 neutralization (HOS-CD4-CCR5 cells); type: cell-based; settings: R5
Protocol: (§1) To determine the potency and breadth of HIV-1 neutralization by the D1 mutants, viruses pseudotyped with Envs from HIV-1 isolates representing clades A-E and using either CCR5 (R5) or CXCR4 (X4) or both (R5X4) as a coreceptor were included. Pseudoviruses were derived from 293T cells and a neutralization assay was performed in duplicate using HOS-CD4-CCR5 (for all R5 and dual tropic viruses) or HOS-CD4-CXCR4 cell lines as described in Chen et al., Proc. Natl. Acad. Sci. USA, 105: 17121-17126 (2008)). Luminescence was measured 48 hours post-infection and the percentage neutralization was calculated by the following formula: (1—average RLU of inhibitor-containing wells/average RLU or virus-only wells)×100.

[5] = system: HIV-1 AD8; assay: as above; type: cell-based; settings: Table 3; AD8, clade B, R5
Protocol: as §1

[6] = system: HIV-1 R2; assay: as above; type: cell-based; settings: Table 3; R2, clade B, R5
Protocol: as §1

[7] = system: HIV-1 89.6; assay: as above; type: cell-based; settings: Table 3; 89.6, clade B, R5X4
Protocol: as §1

[8] = system: HIV-1 CM243; assay: as above; type: cell-based; settings: Table 3; CM243, clade E, R5
Protocol: as §1

[9] = system: HIV-1 GXC; assay: as above; type: cell-based; settings: Table 3, clade C, R5
Protocol: as §1

[10] = system: HIV-1 JRFL; assay: as above; type: cell-based; settings: R5
Protocol: as §1

[11] = system: HIV-1 N1 1046.e3 PV; assay: TZM-bl cell-based neutralization assay; settings: Table 6, clade AE, R5
[12] = system: HIV-1 IIIB; assay: Pseudotyped HIV-1 neutralization (HOS-CD4-CXCR4 cells); type: cell-based; settings: Table 3, clade B, X4
Protocol: as §1

[13] = system: HIV-1 NL4-3; assay: as above; type: cell-based; settings: Table 3; NL4-3, clade B, X4
Protocol: as §1

[14] = system: HIV-1 KNH1088.EC5; assay: TZM-bl cell-based neutralization assay; settings: Table 6; KNH1088.EC5, clade A, R5
[15] = system: HIV-1 Env JRFL; assay: HIV-1 Env-mediated cell-cell fusion; type: cell-based; settings: Table 5, clade B, R5
[16] = system: HIV-1 Env Bal; assay: HIV-1 Env-mediated cell-cell fusion; type: cell-based; settings: R5

4Dm2m: bispecific multivalent fusion protein of mD1.22 and m36.4; two SEQ ID NO: 20 and two SEQ ID NO: 21 chains
IC50 ([1]; read-out: IC50, arithmetic mean): 0.72 nM
IC50 ([1]; read-out: IC50, geometric mean): 0.28 nM
IC90 ([1]; read-out: IC90, geometric mean): 2.4 nM
IC50 [2]: 0.022 nM
aggregation propensity [3]: low aggregation propensity
aggregation during incubation (DLS) ([3]; 10 mg/ml in PBS, 4° C. and 37° C.): disappeared within the first day of incubation
average diameter of particles (DLS) ([3]; 10 mg/ml in PBS, after freeze-thaw, predominantly small particles): 16.3 nm
IC50 ([4]; Table 2, clade B): 0.12 nM
IC90 ([4]; Table 2, clade B): 0.36 nM
IC50 ([4]; Table 3, clade B): 0.15 ± 0.04 nM
IC90 ([4]; Table 3, clade B): 0.5 ± 0.07 nM
IC50 [5]: 0.13 ± 0.01 nM
IC90 [5]: 0.74 ± 0.06 nM
IC50 [6]: 0.028 ± 0.011 nM
IC90 [6]: 0.43 ± 0.18 nM
IC50 [7]: < 0.021 nM
IC90 [7]: < 0.021 nM
IC50 [8]: 0.29 ± 0.11 nM
IC90 [8]: 1.2 ± 0.6 nM
IC50 [9]: 0.61 ± 0.36 nM
IC90 [9]: 4 nM
IC50 ([10]; Table 2, clade B): 0.06 nM
IC90 ([10]; Table 2, clade B): 0.29 nM
IC50 ([10]; Table 3, clade B): 0.14 ± 0.01 nM
IC90 ([10]; Table 3, clade B): 0.39 ± 0.04 nM
IC90 [11]: 27 nM
IC50 [12]: 0.037 ± 0.001 nM
IC90 [12]: 0.1 ± 0.01 nM
IC50 [13]: 0.094 ± 0.002 nM
IC90 [13]: 0.15 ± 0.02 nM
IC50 [14]: 0.48 nM
IC50 [15]: 3.6 ± 0.2 nM
IC90 [15]: 8.8 ± 0.4 nM
IC50 ([16]; Table 4, clade B): 4.1 nM
IC50 ([16]; Table 5, clade B): 4.1 ± 0.1 nM

— patent US20160039904A1, “STABILIZED SINGLE HUMAN CD4 DOMAINS AND FUSION PROTEINS” (priority 2013, published 2016)
